The record followed here is ChEMBL document CHEMBL1828515, “Pantolactams as androgen receptor antagonists for the topical suppression of sebum production” (Bioorg Med Chem Lett, 2011).

Bounds are passed on as bounds.

Test [1] deals with T1, Androgen receptor (Homo sapiens, UniProt P10275).
T1 sequence (P10275 whole entry): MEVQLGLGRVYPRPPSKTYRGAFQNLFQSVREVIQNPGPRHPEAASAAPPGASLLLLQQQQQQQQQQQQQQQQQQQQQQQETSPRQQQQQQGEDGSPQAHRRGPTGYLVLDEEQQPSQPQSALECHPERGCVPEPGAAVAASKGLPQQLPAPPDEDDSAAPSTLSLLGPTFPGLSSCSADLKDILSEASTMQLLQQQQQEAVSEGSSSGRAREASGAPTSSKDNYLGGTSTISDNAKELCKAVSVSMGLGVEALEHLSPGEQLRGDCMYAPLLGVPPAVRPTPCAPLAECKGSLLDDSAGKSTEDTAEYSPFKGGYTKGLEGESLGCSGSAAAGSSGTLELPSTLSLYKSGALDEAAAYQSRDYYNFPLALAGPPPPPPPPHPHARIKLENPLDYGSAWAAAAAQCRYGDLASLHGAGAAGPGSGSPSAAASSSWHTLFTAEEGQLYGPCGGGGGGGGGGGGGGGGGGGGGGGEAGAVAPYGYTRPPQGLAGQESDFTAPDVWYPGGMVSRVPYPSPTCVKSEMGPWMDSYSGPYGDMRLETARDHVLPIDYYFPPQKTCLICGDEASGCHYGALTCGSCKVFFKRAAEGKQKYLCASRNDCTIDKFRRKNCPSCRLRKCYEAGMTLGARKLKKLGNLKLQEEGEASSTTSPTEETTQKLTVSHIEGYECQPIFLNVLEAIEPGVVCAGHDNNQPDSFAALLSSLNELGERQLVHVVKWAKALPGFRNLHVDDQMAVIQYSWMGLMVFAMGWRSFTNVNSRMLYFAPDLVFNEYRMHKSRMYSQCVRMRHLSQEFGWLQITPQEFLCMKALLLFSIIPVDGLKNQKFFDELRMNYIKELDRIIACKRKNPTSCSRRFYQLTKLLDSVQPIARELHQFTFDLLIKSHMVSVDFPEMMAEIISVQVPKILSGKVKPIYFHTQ
As to the kind of experiment: Binding affinity to human androgen receptor.

In test [2] the target is T1, Androgen receptor. The test is described as follows: Antagonist activity at human androgen receptor by cell based assay. It counts as functional.
Test [3] concerns Syrian golden hamster. As to the kind of experiment: Reduction of cholesterol ester in Syrian golden hamster ear model at 1.5 % administered topically. The test is classed as functional, Mesocricetus auratus. Set-up: scale not given: the % may be the effect or the level left.
Test [4] has as its system Syrian golden hamster. As to the kind of experiment: Reduction of wax ester in Syrian golden hamster ear model at 1.5 % administered topically. The test is classed as functional, Mesocricetus auratus. Set-up: scale not given: the % may be the effect or the level left.
Test [5] has as its system Syrian golden hamster. As to the kind of experiment: Reduction of wax ester in Syrian golden hamster ear model at 1 % administered topically. It counts as functional, Mesocricetus auratus. On the set-up: scale not given: the % may be the effect or the level left.
The subject of test [6] is Syrian golden hamster. As to the kind of experiment: Reduction of cholesterol ester in Syrian golden hamster ear model at 2 % administered topically. It counts as functional, Mesocricetus auratus. On the set-up: scale not given: the % may be the effect or the level left.
For test [7], the system named is Syrian golden hamster. As to the kind of experiment: Reduction of wax ester in Syrian golden hamster ear model at 2 % administered topically. The test is classed as functional, Mesocricetus auratus. On the set-up: scale not given: the % may be the effect or the level left.
Test [8] concerns Syrian golden hamster. The test is described as follows: Reduction of wax ester in Syrian golden hamster ear model at 3 % administered topically. The test is classed as functional, Mesocricetus auratus. On the set-up: scale not given: the % may be the effect or the level left.
Test [9] has as its system Syrian golden hamster. The test is described as follows: Reduction of cholesterol ester in Syrian golden hamster ear model at 3 % administered topically. Set-up: scale not given: the % may be the effect or the level left. It counts as functional, Mesocricetus auratus.
Test [10] relates to Syrian golden hamster. As to the kind of experiment: Reduction of cholesterol ester in Syrian golden hamster ear model at 1 % administered topically. It counts as functional, Mesocricetus auratus. Set-up: scale not given: the % may be the effect or the level left.

As a reminder, the IC50 is the concentration needed to halve the response being measured.

`CC1(C)CNC(=O)C1Oc1ccc(C#N)c(C(F)(F)F)c1` (racemic): the half-inhibitory concentration (IC50) at Androgen receptor [1] is 2.79 µM; against Androgen receptor [2] it was 0.082 µM.
The like results for `CSc1ccc(CN2CC(C)(C)C(Oc3ccc(C#N)c(C(F)(F)F)c3)C2=O)cc1` (stereo in doubt; 38) were, in that order, 0.187 µM and 0.051 µM.
`CCOC(=O)CN1CC(C)(C)C(Oc2ccc(C#N)c(C(F)(F)F)c2)C1=O` (racemic) yielded a half-inhibitory concentration (IC50) at Androgen receptor [1] of 3.52 µM.
Regarding `CC1(C)CN(Cc2nc3ccccc3s2)C(=O)C1Oc1ccc(C#N)c(C(F)(F)F)c1` (racemic), the IC50 against Androgen receptor [2] amounted to 0.051 µM.
On Androgen receptor [1], `Cc1nc(CN2CC(C)(C)C(Oc3ccc(C#N)c(C(F)(F)F)c3)C2=O)cs1` (racemic) displayed an IC50 of 0.324 µM.
As for `CSc1ccc(CN2CC(C)(C)C(Oc3ccc(C#N)c(C(F)(F)F)c3)C2=O)cc1` (single isomer, unassigned; (+)), the Activity in the test on Syrian golden hamster [3] is 75%; in the test on Syrian golden hamster [4], 89%. Moreover, the concentration for half-maximal inhibition (IC50) stood at 0.316 µM on Androgen receptor [1] and 0.028 µM against Androgen receptor [2].
`CCCC(C)N1CC(C)(C)C(Oc2ccc(C#N)c(C(F)(F)F)c2)C1=O` (racemic): the IC50 worked out at 0.2 µM on Androgen receptor [1] and 0.006 µM on Androgen receptor [2].
For the compound `CC1(C)COC(=O)C1Oc1ccc(C#N)c(C(F)(F)F)c1` (racemic), the IC50 on Androgen receptor [1] is 0.113 µM; against Androgen receptor [2], 0.07 µM.
Compound `CC1(C)C(=O)N(c2ccc(C#N)c(C(F)(F)F)c2)C(=O)N1CCCCO` [RU-58841] had an Activity in the test with Syrian golden hamster [5] of 95%.
As to `CCCN1CC(C)(C)C(Oc2ccc(C#N)c(C(F)(F)F)c2)C1=O` (racemic), on Androgen receptor [2], 0.024 µM corresponded to half-maximal inhibition (IC50).
Take `CCC(C)N1CC(C)(C)C(Oc2ccc(C#N)c(C(F)(F)F)c2)C1=O` (single isomer, unassigned; (+)): the IC50 was 0.132 µM on Androgen receptor [1] and 0.032 µM on Androgen receptor [2].
`CCNC(=O)CN1CC(C)(C)C(Oc2ccc(C#N)c(C(F)(F)F)c2)C1=O` (racemic) gave an IC50 on Androgen receptor [1] of 4.91 µM.
With `CSCCN1CC(C)(C)C(Oc2ccc(C#N)c(C(F)(F)F)c2)C1=O` (racemic), the half-maximal inhibitory concentration (IC50) at Androgen receptor [1] was 2.45 µM.
`CC1(C)CN(Cc2cccnc2)C(=O)C1Oc1ccc(C#N)c(C(F)(F)F)c1` (racemic) registered a half-inhibitory concentration (IC50) at Androgen receptor [1] of 0.88 µM.
Take `CC1(C)CN(Cc2ccccc2)C(=O)C1Oc1ccc(C#N)c(C(F)(F)F)c1` (racemic): the IC50 stood at 0.03 µM at Androgen receptor [1] and 0.011 µM against Androgen receptor [2].
With `COCCN1CC(C)(C)C(Oc2ccc(C#N)c(C(F)(F)F)c2)C1=O` (racemic), the IC50 on Androgen receptor [1] was 1.77 µM.
In the case of `CC1(C)CN(Cc2ccncc2)C(=O)C1Oc1ccc(C#N)c(C(F)(F)F)c1` (racemic), the IC50 on Androgen receptor [2] was above 0.6 µM.
Same read-out and setting: to `CC1(C)CN(Cc2ccc(F)cc2)C(=O)C1Oc1ccc(C#N)c(C(F)(F)F)c1` (racemic) belongs 0.199 µM.
`CCOC(=O)c1ccc(CN2CC(C)(C)C(Oc3ccc(C#N)c(C(F)(F)F)c3)C2=O)o1` (racemic): the 50% inhibitory concentration (IC50) on Androgen receptor [1] came to 0.166 µM; against Androgen receptor [2], 0.097 µM.
For the compound `COc1cccc(CN2CC(C)(C)C(Oc3ccc(C#N)c(C(F)(F)F)c3)C2=O)c1` (racemic), on Androgen receptor [2], the IC50 was 0.309 µM.
For the compound `CC1(C)COC(=O)[C@H]1Oc1ccc(C#N)c(C(F)(F)F)c1`, the half-maximal inhibitory concentration (IC50) was found to be 10 µM at Androgen receptor [1] and 1 µM against Androgen receptor [2].
As to `CCCCN1CC(C)(C)C(Oc2ccc(C#N)c(C(F)(F)F)c2)C1=O` (single isomer, unassigned; (+)), the Activity with Syrian golden hamster [6] was 66%; in the test with Syrian golden hamster [7], 83%. For the same compound, the concentration for half-maximal inhibition (IC50) on Androgen receptor [1] was 0.091 µM; at Androgen receptor [2], 0.01 µM.
Take `CC(C)CCCN1CC(C)(C)C(Oc2ccc(C#N)c(C(F)(F)F)c2)C1=O` (racemic): the IC50 on Androgen receptor [1] amounted to 0.802 µM.
On the same count and under the same terms, to `CCC(C)N1CC(C)(C)C(Oc2ccc(C#N)c(C(F)(F)F)c2)C1=O` (stereo in doubt; 18) belongs 9.79 µM; to `CCC(CC)CN1CC(C)(C)C(Oc2ccc(C#N)c(C(F)(F)F)c2)C1=O` (racemic), 0.444 µM.
For the compound `CC1(C)CN(Cc2ccccc2)C(=O)C1Oc1ccc(C#N)c(C(F)(F)F)c1` (single isomer, unassigned; (+)), the 50% inhibitory concentration (IC50) was 0.1 µM at Androgen receptor [1] and 0.038 µM at Androgen receptor [2]. Further, the Activity in the test with Syrian golden hamster [8] is recorded as 83%; in the test on Syrian golden hamster [9], 68%.
With `CC1(C)CN(Cc2noc(-c3ccccc3)n2)C(=O)C1Oc1ccc(C#N)c(C(F)(F)F)c1` (racemic), the 50% inhibitory concentration (IC50) at Androgen receptor [1] was 0.084 µM; at Androgen receptor [2] it was 0.04 µM.
For the compound `CC1(C)CN(CCCO)C(=O)C1Oc1ccc(C#N)c(C(F)(F)F)c1` (racemic), the IC50 on Androgen receptor [1] was 0.523 µM.
With `CCCN1CC(C)(C)C(Oc2ccc(C#N)c(C(F)(F)F)c2)C1=O` (single isomer, unassigned; (+)), the Activity came out at 76% in the test on Syrian golden hamster [10] and 85% in the test with Syrian golden hamster [5]. The IC50 is 0.225 µM on Androgen receptor [1] and 0.083 µM on Androgen receptor [2].
On to `CC1(C)CN(Cc2ccccn2)C(=O)C1Oc1ccc(C#N)c(C(F)(F)F)c1` (racemic), for which the IC50 on Androgen receptor [1] turned out to be 0.767 µM.
Consider `COc1ccc(CN2CC(C)(C)C(Oc3ccc(C#N)c(C(F)(F)F)c3)C2=O)cc1` (racemic), for which, on Androgen receptor [1], the 50% inhibitory concentration (IC50) turned out to be 0.284 µM.
With `COC(=O)c1csc(CN2CC(C)(C)C(Oc3ccc(C#N)c(C(F)(F)F)c3)C2=O)n1` (racemic), the 50% inhibitory concentration (IC50) on Androgen receptor [2] was above 0.9 µM.
Regarding `CC1(C)COC(=O)[C@@H]1Oc1ccc(C#N)c(C(F)(F)F)c1`, the figures for the concentration for half-maximal inhibition (IC50) at Androgen receptor [1] and on Androgen receptor [2] were 0.07 µM and 0.042 µM, respectively.
`CC1(C)CN(Cc2nc(-c3ccccc3)no2)C(=O)C1Oc1ccc(C#N)c(C(F)(F)F)c1` (racemic) gave an IC50 on Androgen receptor [2] of 0.054 µM.
The compound `CCCCCCN1CC(C)(C)C(Oc2ccc(C#N)c(C(F)(F)F)c2)C1=O` (racemic) registered a 50% inhibitory concentration (IC50) on Androgen receptor [1] of 0.766 µM.
On to `CC1(C)CN(Cc2ccccc2O)C(=O)C1Oc1ccc(C#N)c(C(F)(F)F)c1` (racemic), for which, on Androgen receptor [2], the midpoint of inhibition, the IC50, lay at 0.013 µM.
Same read-out and setting: to `CC1(C)CN(Cc2ccc(O)cc2)C(=O)C1Oc1ccc(C#N)c(C(F)(F)F)c1` (racemic) belongs 0.032 µM.
As for `CN1CC(C)(C)C(Oc2ccc(C#N)c(C(F)(F)F)c2)C1=O` (racemic), the half-inhibitory concentration (IC50) on Androgen receptor [1] amounted to 1.21 µM.
On the same count and under the same terms, to `COC(=O)CN1CC(C)(C)C(Oc2ccc(C#N)c(C(F)(F)F)c2)C1=O` (racemic) belongs 0.494 µM.
In turn, `CC1(C)CN(Cc2cccc(O)c2)C(=O)C1Oc1ccc(C#N)c(C(F)(F)F)c1` (racemic) gave an IC50 on Androgen receptor [2] above 0.6 µM.
As for `CC1(C)CN(Cc2ccccc2F)C(=O)C1Oc1ccc(C#N)c(C(F)(F)F)c1` (racemic), the IC50 turned out to be 0.174 µM at Androgen receptor [1] and 0.044 µM at Androgen receptor [2].
Take `COCN1CC(C)(C)C(Oc2ccc(C#N)c(C(F)(F)F)c2)C1=O` (racemic): on Androgen receptor [1], the IC50 worked out at 0.516 µM.
Turning to `CC1(C)CN(Cc2ccccc2F)C(=O)C1Oc1ccc(C#N)c(C(F)(F)F)c1` (single isomer, unassigned; (+)), the IC50 at Androgen receptor [1] amounted to 0.112 µM; against Androgen receptor [2], 0.092 µM. In addition, the Activity with Syrian golden hamster [8] is listed as 86%; in the test with Syrian golden hamster [9], 70%.
`CCCCN1CC(C)(C)C(Oc2ccc(C#N)c(C(F)(F)F)c2)C1=O` (racemic): the IC50 on Androgen receptor [1] was 0.119 µM; on Androgen receptor [2], 0.016 µM.
For `CC1(C)CN(Cc2cccc(F)c2)C(=O)C1Oc1ccc(C#N)c(C(F)(F)F)c1` (racemic) the same measures were 0.048 µM and 0.061 µM.
